Measured values taken from patent publication US20120121540A1 (priority 2007, published 2012).

Test: HCV replicon assay (luciferase reporter, ET cell line)
Assay type: cell-based
Conditions: Hepatitis C virus, HCV replicon luciferase activity in ET cells
Summary of the method: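 ET cells carry a stable luciferase-ubiquitin-neo/NS3-5B subgenomic HCV replicon with adaptive mutations. Compounds (0.1 nM to […], 0.5% DMSO) were added 24 h after plating, and luciferase was read 48-72 h later. EC50 came from 10-point 2-fold dilutions fitted to a Hill equation; TC50 was measured in parallel by WST-1.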

Row | SMILES | inhibition at 10 µM
1 | Cc1cscc1-c1cc(C(F)(F)F)c2nc(C(=O)NCc3cccs3)c(Cl)n2c1 [Compound 209, 3-Chloro-6-(4-methyl-thiophen-3-yl)-8-trifluoromethyl-imidazo[1,2-a]pyridine-2-carboxylic acid (thiophen-2-ylmethyl)-amide] | 83.4%
2 | O=C(Nc1ccccc1)Nc1nc2c(C(F)(F)F)cc(-c3ccco3)cn2c1Cl [Compound 211, 1-(3-Chloro-6-furan-2-yl-8-trifluoromethyl-imidazo[1,2-a]pyridin-2-yl)-3-phenyl-urea] | 51.8%
3 | O=C(NCc1ccc(N2CCOCC2)cc1)c1nc2c(C(F)(F)F)cc(-c3ccco3)cn2c1Cl [Compound 212, 3-Chloro-6-furan-2-yl-8-trifluoromethyl-imidazo[1,2-a]pyridine-2-carboxylic Acid 4-morpholin-4-yl-benzylamide] | 56.7%
4 | O=C(NCc1cccc(N2CCOCC2)c1)c1nc2c(C(F)(F)F)cc(-c3ccco3)cn2c1Cl [Compound 213, 3-Chloro-6-furan-2-yl-8-trifluoromethyl-imidazo[1,2-a]pyridine-2-carboxylic Acid 3-morpholin-4-yl-benzylamide] | 2.7%
5 | CN(C)CCOc1ccc(CNC(=O)c2nc3c(C(F)(F)F)cc(-c4ccco4)cn3c2Cl)cc1 [Compound 214, 3-Chloro-6-furan-2-yl-8-trifluoromethyl-imidazo[1,2-a]pyridine-2-carboxylic Acid 4-(2-dimethylamino-ethoxy)-benzylamide] | 49%
6 | CN(C)CCOc1ccccc1CNC(=O)c1nc2c(C(F)(F)F)cc(-c3ccco3)cn2c1Cl [Compound 215, 3-Chloro-6-furan-2-yl-8-trifluoromethyl-imidazo[1,2-a]pyridine-2-carboxylic Acid 2-(2-dimethylamino-ethoxy)-benzylamide] | 49%
7 | O=C(c1nc2c(C(F)(F)F)cc(-c3ccco3)cn2c1Cl)N1CCCC(c2ccccc2)C1 (stereo not shown) [Compound 216, (3-Chloro-6-furan-2-yl-8-trifluoromethyl-imidazo[1,2-a]pyridin-2-yl)-(3-phenyl-piperidin-1-yl)-methanone] | 60.3%
8 | O=C(c1nc2c(C(F)(F)F)cc(-c3ccco3)cn2c1Cl)N1Cc2cccnc2C1 [Compound 217, (3-Chloro-6-furan-2-yl-8-trifluoromethyl-imidazo[1,2-a]pyridin-2-yl)-(5,7-dihydro-pyrrolo[3,4-b]pyridin-6-yl)-methanone] | 38.8%
9 | O=C(c1nc2c(C(F)(F)F)cc(-c3ccco3)cn2c1Cl)N1CCC(c2ccccc2)CC1 [Compound 218, (3-Chloro-6-furan-2-yl-8-trifluoromethyl-imidazo[1,2-a]pyridin-2-yl)-(4-phenyl-piperidin-1-yl)-methanone] | 63.5%
10 | O=C(NCc1ccc(-c2ccccn2)s1)c1nc2c(C(F)(F)F)cc(-c3ccco3)cn2c1Cl [Compound 219, 3-Chloro-6-furan-2-yl-8-trifluoromethyl-imidazo[1,2-a]pyridine-2-carboxylic Acid (5-pyridin-2-yl-thiophen-2-ylmethyl)-amide] | 25.4%
11 | COC(=O)Cc1c(C(=O)NCc2cccs2)nc2c(C(F)(F)F)cc(-c3ccoc3)cn12 [Compound 222, {6-Furan-3-yl-2-[(thiophen-2-ylmethyl)-carbamoyl]-8-trifluoromethyl-imidazo[1,2-a]pyridin-3-yl}-acetic Acid Methyl Ester] | 66.1%
12 | O=C(O)Cc1c(C(=O)NCc2cccs2)nc2c(C(F)(F)F)cc(-c3ccoc3)cn12 [Compound 226, {6-Furan-3-yl-2-[(thiophen-2-ylmethyl)-carbamoyl]-8-trifluoromethyl-imidazo[1,2-a]pyridin-3-yl}-acetic Acid] | 98.8%
13 | O=C(NCc1cccs1)c1nc2c(C(F)(F)F)cc(-c3ccoc3)cn2c1[N+](=O)[O-] [Compound 232, 6-Furan-3-yl-3-nitro-8-trifluoromethyl-imidazo[1,2-a]pyridine-2-carboxylic Acid (thiophen-2-ylmethyl)-amide] | 56.6%
